Assay [1] concerns the target T1, 5-hydroxytryptamine receptor 1A (Homo sapiens) (UniProt P08908).
T1 sequence (whole entry): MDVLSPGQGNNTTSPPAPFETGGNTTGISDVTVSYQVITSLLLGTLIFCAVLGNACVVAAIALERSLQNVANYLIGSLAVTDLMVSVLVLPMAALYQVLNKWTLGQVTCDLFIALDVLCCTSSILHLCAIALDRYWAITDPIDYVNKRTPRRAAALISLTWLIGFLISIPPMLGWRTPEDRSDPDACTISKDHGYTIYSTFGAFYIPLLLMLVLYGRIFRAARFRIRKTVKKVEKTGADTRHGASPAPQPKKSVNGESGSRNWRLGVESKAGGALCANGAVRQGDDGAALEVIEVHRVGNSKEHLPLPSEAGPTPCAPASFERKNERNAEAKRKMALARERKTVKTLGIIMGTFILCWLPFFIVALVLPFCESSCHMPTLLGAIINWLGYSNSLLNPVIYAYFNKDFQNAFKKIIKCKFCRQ
In words: Agonist activity at human cloned 5HT1A receptor expressed in human HeLa cells assessed as stimulation of [35S]GTPgammaS binding after 20 mins by liquid scintillation counting relative to maximal 5HT response. In kind it is functional, cell-based.

In assay [2] the target is T1, 5-hydroxytryptamine receptor 1A (Homo sapiens). In words: Agonist activity at human cloned 5HT1A receptor expressed in human HeLa cells assessed as stimulation of [35S]GTPgammaS binding after 20 mins by liquid scintillation counting. In kind it is functional, cell-based. On the technique in general: GTPγS resists hydrolysis and so accumulates on activated G proteins.

Assay [3] has as its target T2, Alpha-1B adrenergic receptor (Rattus norvegicus) (UniProt P15823).
T2 sequence (whole entry): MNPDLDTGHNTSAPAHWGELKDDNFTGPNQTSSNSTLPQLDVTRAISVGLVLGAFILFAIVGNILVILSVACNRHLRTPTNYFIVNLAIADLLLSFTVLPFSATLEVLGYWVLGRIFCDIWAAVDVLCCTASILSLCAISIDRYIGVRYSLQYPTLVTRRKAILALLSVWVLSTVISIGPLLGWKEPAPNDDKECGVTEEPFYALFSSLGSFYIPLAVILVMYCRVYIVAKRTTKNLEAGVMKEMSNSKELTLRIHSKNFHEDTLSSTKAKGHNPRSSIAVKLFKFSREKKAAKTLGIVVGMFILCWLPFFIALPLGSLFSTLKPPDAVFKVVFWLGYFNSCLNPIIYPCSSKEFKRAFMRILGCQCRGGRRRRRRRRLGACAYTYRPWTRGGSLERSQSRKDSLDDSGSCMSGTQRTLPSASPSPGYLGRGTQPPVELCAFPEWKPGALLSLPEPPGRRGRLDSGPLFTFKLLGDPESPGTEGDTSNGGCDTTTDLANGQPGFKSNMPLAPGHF
In words: Antagonist activity at adrenergic Alpha-1B receptor in Wistar rat spleen assessed as inhibition of […]-induced tissue contraction treated 30 mins before […] challenge. In kind it is functional, tissue-based.

Broadly, the Emax is the size of the effect at its maximum, as opposed to the concentration needed. For orientation: pKb means the Kb on a negative log10 scale, so that one unit is a factor of ten.

As for `CCCN(CCC)C1CCc2cccc(O)c2C1` (stereo not given), the Emax in assay [1] was found to be 26%. For the same compound, the pD2 in assay [2] was 9.27.

`COc1ccccc1N1CCN(CCN2C(=O)CC3(CCCC3)CC2=O)CC1`: in assay [3], the pKb came to 7.48. The Emax in assay [1] came out at 100%. For the same compound, in assay [2], the pD2 is 7.83.

These data come from ChEMBL document CHEMBL1240454, “1,3-Dioxolane-based ligands incorporating a lactam or imide moiety: structure-affinity/activity relationship at alpha1-adrenoceptor subtypes and at 5-HT1A receptors” (Eur J Med Chem, 2010).
